Values after ≈ are worked out from the molar mass of the structure shown.
Columns and labels:
[1] = test system: Yeast (S. cerevisiae strains); test: MIC, yeast (strain not specified); assay type: cell-based, Saccharomyces cerevisiae; details: Saccharomyces cerevisiae; yeast strain not specified (Tables 5 and 10); read-out: MIC Yeast
Method: (§1) The determination of the MIC for yeast strains was carried out following a similar procedure to that of the polyamines and antifungal reference agents: Serial dilutions of each one in phosphate buffer (20 mM, pH 7.4, 0.5 mL) were prepared and mixed with a suspension of yeast cells (OD600 0.04 in SC-ura 2X (VWR, Atlanta, GA, USA), 0.5 mL). […] Experiments were carried out at least three times in all cases.

E. coli JM101 = test: Minimal bactericidal concentration, E. coli; assay type: cell-based, Escherichia coli; details: Escherichia coli, JM101; overnight incubation, plating on LB; bacteriostatic if growth at 4 times the MIC
Method: (§2) Once the MIC was known, the samples were prepared as described in the previous section with polyamine concentrations corresponding to the MIC and half, double, and four times its value. After overnight incubation with the microorganisms, 30 μL of a ten-fold dilution of each one was spread in LB (in the case of bacterial strains) or SC-ura (for yeast strains) plates. They were incubated for 20 h at 37 °C (bacteria) or 48 h at 30 °C (yeasts), and the level of growth was determined. […] Experiments were carried out at least three times.

[2] = test system: Staphylococcus aureus BHI; test: MIC, microdilution in culture medium, S. aureus; assay type: cell-based; details: Staphylococcus aureus; 20 h, 37 °C; average of at least three experiments; read-out: MIC, Bacteria, S. aureus BHI
Excerpt: (§3) The microorganisms used for the susceptibility tests were the bacteria Escherichia coli JM101 and Staphylococcus aureus BHI, and the yeast Saccharomyces cerevisiae strains BY4741 (MAT a his3Δ1 leu2Δ0 met15Δ0 ura3Δ0 (EUROSCARF)) carrying YEplac195 (from EUROSCARF) or YEPlac195-PDR5 (provided by Ayse Banu Demir, Izmir University of Economics, Turkey) plasmids.
(§4) Bacterial strains were usually maintained and grown in an LB medium (0.5% (w/v) yeast extract, 1% (w/v) bactotryptone, and 1% (w/v) NaCl) at 37 °C. For MIC (minimal inhibitory concentration) and MMC (minimal microbicidal concentration) assays, and for the determination of synergies, overnight growth was carried out in 2% (w/v) bactopeptone (BP), and then the cultures were diluted and incubated for several hours in 2% (w/v) BP for ensuring logarithmic growth. Yeast strains were grown in an SC-ura medium (0.17% (w/v) yeast nitrogen base without amino acids and ammonium sulphate, 0.2% (w/v) drop-out without uracil, 0.5% (w/v) (NH4)2SO4, and 2% (w/v) glucose) at 30 °C. Liquid cultures were incubated with shaking (200 rpm). Solid media also contained 2% (w/v) agar.
(§5) For the analysis of the antimicrobial activity, the strategies and indications of Cushnie et al. were considered. The standardised method of microdilution in a culture medium was followed to determine the MIC [55]. In bacterial strains, serial dilutions of the compounds to be tested and the control antibiotics were prepared in phosphate buffer (20 mM, pH 7.4, 0.5 mL) and were mixed with a suspension of bacterial cells in a logarithmic growth phase (in 1% BP, 0.5 mL). The final OD600 of the whole solutions were 0.004 and 0.008 for E. coli and S. aureus cultures, respectively. After 20 h of incubation at 37 °C with shaking, the MIC was determined as the lowest concentration of each compound in which no visible bacterial growth was observed.

BY4741/PDR5 = test: Checkerboard titration synergy, BY4741/PDR5; assay type: cell-based, Saccharomyces cerevisiae; details: synergistic when FICI ≤0.5
Method: (§6) The combined antimicrobial activity of the test compounds with the antibacterial or antifungal control agents was performed under the same conditions used for the MIC determination and following the procedures described by Carton Herrán, Reis de Sá et al. and Zharkova et al.. For each experiment, 16 samples (4 rows × 4 columns) in a total volume of 0.5 mL were prepared in tubes using an array of combinations between the MIC value and 0 μg/mL of the compound to be tested in each row, and between the MIC value and 0 μg/mL of the reference drug in each column. In this way, a variety of mixtures with different concentrations of them alone or in combination was obtained. Briefly, 0.5 mL of a microorganism culture was added to each one of the samples, and after incubation for 24 h with shaking at the appropriate temperature (37 °C or 30 °C), the tubs were visually inspected, and the OD600 was measured. From this information, the fractional inhibitory concentration index (FICI) was calculated according to the formula FIC index = ([A]/[CMI A]) + ([B]/[CMI B]), where [A] and [B] are respective concentrations of tested polyamine and reference drug in their combination effectively inhibiting the growth of bacteria or yeast, and [MIC A] and [MIC B] are the individual MICs of the tested polyamine and reference drug when they are used alone. An interaction is considered synergistic when the FICI value is ≤0.5 [41, 42].
(§7) To confirm the data obtained in the checkerboard assay, 30 μL of a ten-fold dilution of the tubes containing concentrations of half of the MIC of each one of the compounds alone (polyamine to be tested and reference drug) and one fourth of the MIC of each one in combination were also spread in LB or SC-ura plates (according to the microorganism considered in each case) and incubated at 37 °C or 30 °C. The visualisation of these plates was performed after 24 or 48 h, respectively. All these experiments were carried out in triplicate.

E. coli [3] = test: Checkerboard titration synergy, E. coli; assay type: cell-based, Escherichia coli; details: synergistic when FICI ≤0.5
Method: as §6, §7

S. cerevisiae strains = test: Minimal fungicidal concentration, S. cerevisiae strains; assay type: cell-based, Saccharomyces cerevisiae; details: fungistatic = growth on SC-ura plates after incubation at four times the MIC
Method: as §2

[4] = Cytotoxicity, flow cytometry viability assay with propidium iodide; assay type: cell-based, human; details: human, Jurkat cells (human lymphocytic leukaemia, ATCC TIB-152), 24 h treatment, average of three experiments, read-out: IC50, cytotoxicity on the human Jurkat cell line
Method: The cytotoxicity of the compounds was assessed via flow cytometry with a viability assay using propidium iodide (PI), a DNA-binding fluorescent probe not permeant to live cells, which is commonly used to detect dead cells in a population. The human lymphocytic leukaemia Jurkat cell line (ATCC TIB-152) was obtained from the American Type Cell Culture (Sigma-Aldrich) and grown in suspension in an RPMI 1640 medium (Thermo Fisher Scientific, Waltham, MA, USA) supplemented with L-glutamine, antibiotics, and 10% heat-inactivated foetal calf serum (FCS, Thermo Fisher Scientific, Waltham, MA, USA). For the viability assay, cells were seeded in plastic 96-well plates at […] in an RPMI 1640 medium supplemented with 5% FCS. The cells were treated for 24 h with a range of concentrations of the test compounds or with the same volume of phosphate buffer (PBS) in control wells. After incubation, cell suspensions were washed, resuspended in 400 μL fresh medium, and incubated for 5 min at room temperature in the dark with 3.75 μM PI (Sigma-Aldrich). Cell viability was determined via flow cytometry using a Gallios flow cytometer (Beckman Coulter). PI fluorescence was excited with an argon-ion laser at 488 nm and collected through a 620/630 nm band-pass emission. Cellular events were discriminated from debris using forward scatter (FS) and side scatter (SS) signals. Cell aggregates were excluded from analysis based on FS-integral and FS-peak. The gates applied for population discrimination were set manually based on control samples. For each sample, 10,000 events were collected. For further analysis, the cytometric data were exported to Kaluza 2.1 software (Beckman Coulter, Brea, CA, USA). Dead cells were identified and quantified as PI-positive events. The cytotoxic potency of test compounds was quantified using their IC50 values, i.e., the compound concentration at which cell viability is inhibited by 50%, as calculated via curve fitting and determined with the correlation coefficient (R2) using GraphPad Prism 9.0 software. Experiments were carried out in triplicate.

Escherichia coli JM101 = test: MIC, microdilution in culture medium, E. coli; assay type: cell-based; details: Escherichia coli, JM101; 20 h, 37 °C; average of at least three experiments; read-out: MIC, Bacteria, E. coli JM101
Excerpt: as §3, §4, §5

BY4741/YEplac195 = test: Checkerboard titration synergy, BY4741/YEplac195; assay type: cell-based, Saccharomyces cerevisiae; details: synergistic when FICI ≤0.5
Method: as §6, §7

[5] = test system: Saccharomyces cerevisiae BY4741/YEplac195-PDR5; test: microbe, parasite or virus in culture; assay type: cell-based; details: Saccharomyces cerevisiae, 24 h, read-out: MIC, Yeast, BY4741/ PDR5
Excerpt: as §3, §4, §1

[6] = test system: Saccharomyces cerevisiae BY4741/YEplac195; test: microbe, parasite or virus in culture; assay type: cell-based; details: Saccharomyces cerevisiae; 24 h, 30 °C; average of at least three experiments; read-out: MIC, Yeast, BY4741/ YEplac195
Excerpt: as §3, §4, §1

S. aureus = test: Lytic activity, time-kill (OD600), S. aureus; assay type: cell-based, Staphylococcus aureus; details: 5 times the MIC
Method: (§8) To determine if the compounds showing microbicidal activity induce cell lysis, the procedure described by Fleeman et al. was followed, with the modifications indicated below. The E. coli and S. aureus strains were grown as in the experiments described earlier. The cells corresponding to 1.5 units of OD600 were collected and resuspended in 1% BP after washing in the same medium. They were incubated in a final volume of 1 mL with concentrations 5 times higher than the MIC of the analysed compounds, and OD600 was monitored over time. Other antimicrobial compounds were also used in this study as controls. The experiments were performed in triplicate.

yeast cells = test: Intracellular ATP by luciferase bioluminescence, yeast; assay type: cell-based, Saccharomyces cerevisiae; details: overnight treatment
Method: The procedure described by Lehtinen et al. was followed, with the modifications indicated herein. In the case of bacteria, 1.5 OD600 units were incubated overnight in 1 mL of final volume with 5-fold MIC concentrations. Then, the cells were collected, washed 3 times in 20 mM phosphate buffer pH 7.4, and lysed in 200 μL of LS1 (50 mM of glucose, 25 mM of Tris-HCl pH 8.0, and 10 mM of EDTA pH 8.0) containing 5 mg/mL of lysozyme and the same volume of glass beads (425–600 μm), by stirring 10 times for 15 s each. Then, the solution was centrifuged at 14,800× g for 15 min, and the supernatant was used for a luciferase assay. For this purpose, in each well of a microtiter plate, 100 μL of luciferase assay buffer (0.015 M of MgSO4, 0.015 M of KH2PO4 pH 8, 0.004 M of EGTA pH 8, and 2 mM of DTT) was added together to a 50 μL of 0.3 mg/mL luciferin solution in 0.01% (w/v) Triton X-100 and 50 μL of the cell extract. Finally, 15 μL of a 67 μg/mL aqueous solution of luciferase was added. Light emission was immediately detected using a Luminoskan Ascent instrument (Thermo Scientific, Waltham, MA, USA) for 1 s per well. Glass beads, lysozyme, luciferin, and luciferase were purchased from Sigma-Aldrich.
[…] Then, cells were collected and washed as above and resuspended in 500 μL of LS2 (140 mM of NaCl, 1.5 mM of MgCl2, 10 mM of Tris-HCl pH 8.0, and 0.5% (v/v) NP40). Cells were lysed in the presence of 1 volume of glass beads as described above. The next steps were carried out as in the case of bacterial samples.
Experiments were carried out at least in triplicate in all cases, and control drugs and SDS (0.1% (w/v) of the final concentration) were also included.

E. coli [7] = test: Lytic activity, time-kill (OD600), E. coli; assay type: cell-based, Escherichia coli; details: 5 times the MIC
Method: as §8

Structure (SMILES)	MIC [2]	MIC (Escherichia coli JM101)	MIC [5]	MIC [6]	Lytic activity (OD600 over time) (S. aureus)	further results
NCCN1CCNCc2cccc(n2)CNCC1 [Compound 5b]	200 µg/mL	10 µg/mL	110 µg/mL	110 µg/mL		MIC [1]: 110 µg/mL (≈ 441 µM); MBC (E. coli JM101): 20 µg/mL (≈ 80.2 µM); Synergy with Amphotericin B (BY4741/PDR5): -; Synergy with Cycloheximide (BY4741/PDR5): positive results and +; Synergy with Ciprofloxacin (E. coli [3]): synergy; Minimal fungicidal concentration (MFC), S. cerevisiae Strains (S. cerevisiae strains): Fungistatic; IC50 at 24 h [4]: 1250 µg/mL (≈ 5020 µM); Synergy with Amphotericin B (BY4741/YEplac195): -; Synergy with Cycloheximide (BY4741/YEplac195): positive results and +; Synergy with Fluconazole (BY4741/YEplac195): synergic and +
C[C@H]1c2cccc(O)c2C(=O)C2=C(O)[C@]3(O)C(=O)C(C(N)=O)=C(O)[C@@H](N(C)C)[C@@H]3[C@@H](O)[C@@H]21 [Doxycycline, reference compound]	0.25 µg/mL	1 µg/mL			not the case	
OC(Cn1cncn1)(Cn1cncn1)c1ccc(F)cc1F [Fluconazole, reference compound]			60 µg/mL	10 µg/mL		Intracellular ATP level relative to untreated cells (yeast cells; 30-fold the MIC): very reduced
CC1(C)S[C@@H]2[C@H](NC(=O)[C@H](N)c3ccccc3)C(=O)N2[C@H]1C(=O)O [Ampicillin, reference compound]	0.14 µg/mL	2 µg/mL			cellular lysis	Lytic activity (OD600 over time) (E. coli [7]): OD600 significantly decreased
CCCCCCCCCCCCOS(=O)(=O)[O-].[Na+] [SDS]						Intracellular ATP level relative to untreated cells (yeast cells; 0.1% (w/v)): 50–70%
C[C@@H]1[C@H](O)[C@@H](C)/C=C/C=C/C=C/C=C/C=C/C=C/C=C/[C@H](O[C@@H]2O[C@H](C)[C@@H](O)[C@H](N)[C@@H]2O)C[C@@H]2O[C@](O)(C[C@@H](O)C[C@@H](O)[C@H](O)CC[C@@H](O)C[C@@H](O)CC(=O)O[C@H]1C)C[C@H](O)[C@H]2C(=O)O [Amphotericin B, reference compound]			1 µg/mL	1 µg/mL		Intracellular ATP level relative to untreated cells (yeast cells; 50-fold the MIC): dramatic decrease
